From patent US7972831B2, “Lipases from thermophilic anaerobes” (Novozymes A/S, priority 2004, dated 2011)
Where “and” joins values, the source holds several entries; their conditions need not be identical. Identical values can stand only once.

Key:
lipase of SEQ ID NO: 2 [1] = assay: Substrate specificity with triacylglycerols; assay type: biochemical, Thermoanaerobacter thermohydrosulfuricus; settings: triacylglycerol 10 mM, pH 8.0, 25 h at 70° C.
Experimental: The lipase of SEQ ID NO: 2 was tested by reaction with various triacylglycerols 10 mM (pH 8.0) as substrates: for 25 h at 70° C. Similar results were obtained with the lipase of SEQ ID NO: 4.

lipase = assay: Effects of metal ions on lipase activity; assay type: biochemical; settings: metal ions up to 10 mM
Source text: The activity was decreased by the following ions: Zn2+, Fe2+, Fe3+ and Cr3+.

lipase of SEQ ID NO: 2 [2] = assay: Enantioselectivity of ester hydrolysis; assay type: biochemical, Thermoanaerobacter thermohydrosulfuricus
Experimental: The (S)-alcohols were formed. The lipase was more enantioselective towards butynol butyrate than towards butynol acetate. Over time the conversion increased for all four substrates and reached above 20-30% after 24 h of reactions time. Over time in the contrast to the conversion the enantioselectivity of the enzyme towards both substrates decreased for butynol butyrate from 16.7 to 8.06 and for butynol acetate from 9.15 to 2.65 after 40 h of reactions time. […] For two other substrates the enantioselectivity of the lipase (E≧1) was constant over time.

Row | Compound | lipase activity in the presence of metal ions (lipase) | also measured
1 | CC(=O)OCC(COC(C)=O)OC(C)=O [Triacetin, Triacetin (C2:0)] |  | Relative activity (lipase of SEQ ID NO: 2 [1]): 5
2 | CCCCCC(=O)OCC(COC(=O)CCCCC)OC(=O)CCCCC [Tricaproin, Tricaproin (C6:0)] |  | Relative activity (lipase of SEQ ID NO: 2 [1]): 74
3 | [Fe+3] [Fe3+] | decreased | 
4 | [Ni+2] [Ni2+] | nearly unchanged | 
5 | CCCCCCCC(=O)OCC(COC(=O)CCCCCCC)OC(=O)CCCCCCC [Tricaprylin, Tricaprylin (C8:0)] |  | Relative activity (lipase of SEQ ID NO: 2 [1]): 100
6 | [Cu+2] [Cu2+] | nearly unchanged | 
7 | [Na+] [Na+] | nearly unchanged | 
8 | [Ca+2] [Ca2+] | nearly unchanged | 
9 | butynol butyrate |  | enantiopreference (lipase of SEQ ID NO: 2 [2]): (S)-preference; lipase activity towards substrate (lipase of SEQ ID NO: 2 [2]): active; E-value (enantioselectivity) (lipase of SEQ ID NO: 2 [2]; after 40 h of reactions time): 8.06; E-value (enantioselectivity) (lipase of SEQ ID NO: 2 [2]; initial value): 16.7
10 | [K+] [K+] | nearly unchanged | 
11 | [Al+3] [Al3+] | nearly unchanged | 
12 | [Fe+2] [Fe2+] | decreased | 
13 | [Co+2] [Co2+] | nearly unchanged | 
14 | [Cr+3] [Cr3+] | decreased | 
15 | [Zn+2] [Zn2+] | decreased | 
16 | CC(=O)OC(C)c1ccccc1 (stereo not shown) [1-phenyl-1-ethyl-acetate] |  | lipase activity towards substrate (lipase of SEQ ID NO: 2 [2]): active
17 | [Ag+] [Ag+] | nearly unchanged | 
18 | CC(=O)OC(C)Cc1ccccc1 (stereo not shown) [1-phenyl-2-propyl-acetate] |  | lipase activity towards substrate (lipase of SEQ ID NO: 2 [2]): active
19 | CCCCCCCCCC(=O)OCC(COC(=O)CCCCCCCCC)OC(=O)CCCCCCCCC [Tricaprin, Tricaprin (C10:0)] |  | Relative activity (lipase of SEQ ID NO: 2 [1]): 15
20 | butynol acetate |  | enantiopreference (lipase of SEQ ID NO: 2 [2]): (S)-preference; lipase activity towards substrate (lipase of SEQ ID NO: 2 [2]): active; E-value (enantioselectivity) (lipase of SEQ ID NO: 2 [2]; after 40 h of reactions time): 2.65; E-value (enantioselectivity) (lipase of SEQ ID NO: 2 [2]; initial value): 9.2 and 9.15
21 | [Sr+2] [Sr2+] | nearly unchanged | 
22 | [Rb+] [Rb+] | nearly unchanged | 
23 | CCCC(=O)OCC(COC(=O)CCC)OC(=O)CCC [Tributyrin, Tributyrin (C4:0)] |  | Relative activity (lipase of SEQ ID NO: 2 [1]): 10
24 | [Mg+2] [Mg2+] | nearly unchanged | 
25 | [Mn+2] [Mn2+] | nearly unchanged | 
